Data on 9 compounds can be found in patent US20260364184A1, “COMPOUND BASED ON OXOISOINDOLINYL-SUBSTITUTED TETRAHYDROPYRIMIDINE-DIONE AND USE THEREOF” (GLUETACS THERAPEUTICS (SHANGHAI) CO., LTD., priority 2023, published 2026).

Each structure is given as a SMILES string.

In general, inhibition refers to the share of the control response that was lost under treatment.

Experiment [1] addresses T1, Tau (Homo sapiens, UniProt P10636).
T1 construct: endogenous in cells
The experiment can be described thus: Western blot degradation of Tau. As to conditions: H4 Cell; 24 hours. In kind it is cell-based. As for the experimental part: Conventional Western blot assay was performed to evaluate the effects of the compounds of the present disclosure on the expression of target proteins in cells.
(1) Cell Seeding and Protein Harvesting: The selected cells were processed according to the cell seeding procedure and protein harvesting procedure in Table II-2.
(2) To the collected supernatant, 5×SDS sample loading buffer was added, followed by denaturation at 95 °C for 5 minutes. The denatured samples were then separated by SDS-PAGE electrophoresis on a polyacrylamide gel. Proteins were transferred to a nitrocellulose membrane (0.45 μm NC membrane), blocked with blocking buffer at room temperature for 1 hour, and subjected to antibody incubation and development procedures according to the antibody manufacturer's instructions (Cell Signaling Technology).
Half-Maximal Degradation Concentration value (the drug concentration required for degrading proteins by 50%, abbreviated as DC50) reads method: comparing the grayscale values of Western blot bands from drug-treated samples with those from blank DMSO-treated controls, and identifying the drug concentration range at which the grayscale value is half that of the DMSO-treated control bands.
DC50 values can be calculated using ImageJ software to measure grayscale values of Western blot bands from drug-treated samples. The concentration-response curve is fitted to estimate the drug concentration corresponding to half the grayscale value.
Target protein remaining (%) refers to the percentage of target protein remaining in cells after treatment with protein degrader compounds.
Calculation method for target protein remaining (%): Use ImageJ software to measure grayscale values of Western blot bands from drug (protein degrader)-treated samples. The grayscale value of drug-treated bands is divided by that of internal control protein bands, and the resulting quotient is normalized to obtain the relative percentage of remaining target protein after protein degrader treatment.
Target protein degradation rate (%)=1−target protein remaining (%).
In general terms: A western blot detects proteins with antibodies after separation by electrophoresis.

Experiment [2] concerns Human Acute T Lymphoblastic Leukemia Cells (Molt-4). The experiment can be described thus: Inhibition of Molt-4 cell proliferation (CellTiter luminescent viability). The class given is cell-based. The following applies: Table IE1, CDK4/6 inhibitor-based; Molt-4, 96 hours; read-out: Inhibitory activity (IC50, nM) on tumor cell proliferation, Molt-4.
In experiment [3] the test system is Human large cell immunoblastic lymphoma cell line SR. As to the kind of experiment: Inhibition of SR cell proliferation (CellTiter luminescent viability). The class given is cell-based. The following applies: Table IE1, CDK4/6 inhibitor-based, 96 hours, read-out: Inhibitory activity (IC50, nM) on tumor cell proliferation, SR. The procedure, abridged:
(§1)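 IC50 is fitted from luminescent viability (CellTiter-Meiluncell) curves. Nine-point, 5-fold dilution series (top stock 2000 μM) are added at 0.5 μL per 100 μL medium to cells plated the day before, with growth at 37 °C and 5% CO2.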

Experiment [4] concerns Human myeloid monocytic leukemia cell line (MV-4-11). As to the kind of experiment: Inhibition of MV-4-11 cell proliferation (CellTiter luminescent viability). As to conditions: for IC50: Table IE1, CDK4/6 inhibitor-based, MV-4-11, 96 hours, read-out: Inhibitory activity (IC50, nM) on tumor cell proliferation, MV-4-11. The class given is cell-based. The procedure, abridged: as §1

In experiment [5] the test system is Human breast cancer cell line MCF-7. As to the kind of experiment: Inhibition of MCF-7 cell proliferation (CellTiter luminescent viability). As to conditions: Table IE1, CDK4/6 inhibitor-based; MCF-7, 96 hours; read-out: Inhibitory activity (IC50, nM) on tumor cell proliferation, MCF-7. The protocol: The tumor cells used herein were cultured in a cell culture medium listed in table 3 at 37 °C in an incubator with 5% CO2. Prior to experimentation, all cell lines used were correctly identified by STR profiling, and tested negative for mycoplasma contamination using a mycoplasma detection kit through routine screenings.
The IC50 values of the compounds of the present disclosure (including the compounds in Table 1, Table 2, and Examples 1-468) were determined using the CellTiter-Meiluncell Luminescent Cell Viability Assay Kit from Dalian Meilun Biotech Co., Ltd. The detailed procedure is as follows: Tumor cells were seeded in 96-well cell culture plates at the densities specified in Table 4. On the following day, the test compounds of the present disclosure were subjected to serial dilution. The dilution can be performed according to one of the following two methods: • (1) The first dilution method: The test compounds of the present disclosure (including the compounds in Table 1, Table 2, and Examples 1-468) were subjected to 5-fold serial dilutions starting from a highest concentration of 2000 μM, resulting in a total of 9 concentrations from high to low (2000, 400, 80, 16, 3.2, 0.64, 0.128, 0.0256, 0.00512 μM). Subsequently, 0.5 μL of the test compound dilution was transferred into the 96-well plate containing the cells, with each well containing 100 μL of cell culture medium. […] Into the 96-well plate, the diluted test compounds and corresponding detection reagents were added, resulting in final test compound concentrations of 500 nM and 10 nM, respectively. The experimental procedure is described below using the diluted 2 μM test compound as an example.
0.5 μL of the aforementioned diluted compound of the present disclosure (including the compounds in Table 1, Table 2, and Examples 1-468) was added to the seeded cells in 100 μL of medium, yielding a final test compound concentration of 10 nM. After the cells were treated with the compounds of the present disclosure for a specified period, the cell viability assay reagent was added to the culture medium according to the kit's instructions to determine cell viability. […] All controls were treated using the same procedure as the compounds of the present disclosure. The growth inhibition curves for the compounds of the present disclosure were plotted using Prism GraphPad software, and the IC50 values were calculated therefrom.

Experiment [6] deals with T2, CDK6 (Homo sapiens, UniProt Q00534+Q96SW2).
T2 construct: expression of target proteins in cells; endogenous in cells
T2 sequence (Q00534 whole entry): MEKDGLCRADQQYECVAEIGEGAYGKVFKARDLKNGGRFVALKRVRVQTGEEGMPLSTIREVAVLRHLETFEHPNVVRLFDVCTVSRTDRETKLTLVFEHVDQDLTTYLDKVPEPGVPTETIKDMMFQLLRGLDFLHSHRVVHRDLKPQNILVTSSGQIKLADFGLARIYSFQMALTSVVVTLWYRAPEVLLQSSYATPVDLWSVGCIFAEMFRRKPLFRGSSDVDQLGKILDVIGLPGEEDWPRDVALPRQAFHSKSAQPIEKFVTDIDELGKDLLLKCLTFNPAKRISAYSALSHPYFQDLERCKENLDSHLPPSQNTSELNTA
T2 sequence (Q96SW2 whole entry): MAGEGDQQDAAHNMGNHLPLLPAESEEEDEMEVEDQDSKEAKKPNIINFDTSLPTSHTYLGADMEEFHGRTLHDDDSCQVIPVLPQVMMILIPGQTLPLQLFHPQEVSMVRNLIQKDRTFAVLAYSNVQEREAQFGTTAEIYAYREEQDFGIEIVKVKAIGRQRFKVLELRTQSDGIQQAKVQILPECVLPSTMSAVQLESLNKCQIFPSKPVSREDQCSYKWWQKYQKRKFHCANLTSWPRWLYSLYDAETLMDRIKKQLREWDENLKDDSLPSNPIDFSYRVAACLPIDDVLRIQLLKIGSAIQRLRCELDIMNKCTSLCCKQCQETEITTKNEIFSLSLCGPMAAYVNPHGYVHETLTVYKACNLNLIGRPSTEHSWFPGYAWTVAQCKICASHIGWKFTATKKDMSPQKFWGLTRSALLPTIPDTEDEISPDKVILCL
T2 sequence (Q16531 whole entry partner): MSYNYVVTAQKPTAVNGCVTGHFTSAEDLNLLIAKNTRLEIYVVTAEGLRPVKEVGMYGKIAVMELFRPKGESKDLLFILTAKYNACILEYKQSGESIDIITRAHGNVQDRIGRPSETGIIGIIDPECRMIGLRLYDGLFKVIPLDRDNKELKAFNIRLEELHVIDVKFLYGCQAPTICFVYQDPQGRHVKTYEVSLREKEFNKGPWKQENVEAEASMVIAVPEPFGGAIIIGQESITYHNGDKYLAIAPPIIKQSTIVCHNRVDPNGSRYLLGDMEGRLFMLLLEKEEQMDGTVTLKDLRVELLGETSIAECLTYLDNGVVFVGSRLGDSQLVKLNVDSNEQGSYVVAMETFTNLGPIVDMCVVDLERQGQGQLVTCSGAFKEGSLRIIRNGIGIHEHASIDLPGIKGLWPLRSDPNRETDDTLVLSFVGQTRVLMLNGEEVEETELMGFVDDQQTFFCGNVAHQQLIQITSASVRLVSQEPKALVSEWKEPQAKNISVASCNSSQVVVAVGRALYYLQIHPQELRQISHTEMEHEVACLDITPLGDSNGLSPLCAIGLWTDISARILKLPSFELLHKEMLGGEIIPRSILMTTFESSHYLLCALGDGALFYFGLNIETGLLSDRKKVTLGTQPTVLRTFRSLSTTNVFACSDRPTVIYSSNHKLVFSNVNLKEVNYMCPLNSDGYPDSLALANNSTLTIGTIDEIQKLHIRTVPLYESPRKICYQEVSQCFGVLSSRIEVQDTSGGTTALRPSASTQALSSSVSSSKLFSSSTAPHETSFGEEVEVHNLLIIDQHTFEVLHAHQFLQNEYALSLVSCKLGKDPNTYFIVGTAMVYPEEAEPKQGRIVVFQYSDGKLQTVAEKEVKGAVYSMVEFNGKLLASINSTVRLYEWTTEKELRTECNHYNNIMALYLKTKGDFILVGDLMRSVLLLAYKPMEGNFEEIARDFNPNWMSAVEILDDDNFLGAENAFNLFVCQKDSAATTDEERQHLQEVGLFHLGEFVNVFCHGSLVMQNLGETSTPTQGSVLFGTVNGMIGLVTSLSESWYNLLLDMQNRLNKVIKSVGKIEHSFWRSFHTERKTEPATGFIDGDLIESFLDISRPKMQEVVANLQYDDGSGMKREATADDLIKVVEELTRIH
As to the kind of experiment: Western blot degradation of CDK6. The class given is cell-based. As to conditions: MDA-MB-231 Cell; 24 hours. The method in brief: (§2)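 Compound-treated cells harvested; lysates denatured 5 min at 95 °C, run on SDS-PAGE, blotted to NC membrane, blocked 1 h RT, probed with antibodies. Densitometry vs DMSO → DC50; target normalised to internal control → % remaining, degradation = 1 − remaining.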

For experiment [7], the system named is Human acute lymphocytic leukemia T lymphocytes cell line (CCRF-CEM). The experiment can be described thus: Inhibition of CCRF-CEM cell proliferation (CellTiter luminescent viability). The class given is cell-based. As to conditions: Table IE1, CDK4/6 inhibitor-based, 96 hours, read-out: Inhibitory activity (IC50, nM) on tumor cell proliferation, CCRF-CEM.
Experiment [8] concerns the target T3, CDK4 (Homo sapiens, UniProt P11802+Q96SW2).
T3 construct: expression of target proteins in cells; endogenous in cells
As to the kind of experiment: Western blot degradation of CDK4. In kind it is cell-based. As to conditions: MDA-MB-231 Cell; 24 hours. The method in brief:
as §2

In experiment [9] the test system is Human lung cancer cell line (H292). The experiment can be described thus: Inhibition of H292 cell proliferation (CellTiter luminescent viability). In kind it is cell-based. The following applies: NCI-H292, Table IE2, CDK4/6 inhibitor-based, 96 hours.

T1 sequence (P10636 whole entry): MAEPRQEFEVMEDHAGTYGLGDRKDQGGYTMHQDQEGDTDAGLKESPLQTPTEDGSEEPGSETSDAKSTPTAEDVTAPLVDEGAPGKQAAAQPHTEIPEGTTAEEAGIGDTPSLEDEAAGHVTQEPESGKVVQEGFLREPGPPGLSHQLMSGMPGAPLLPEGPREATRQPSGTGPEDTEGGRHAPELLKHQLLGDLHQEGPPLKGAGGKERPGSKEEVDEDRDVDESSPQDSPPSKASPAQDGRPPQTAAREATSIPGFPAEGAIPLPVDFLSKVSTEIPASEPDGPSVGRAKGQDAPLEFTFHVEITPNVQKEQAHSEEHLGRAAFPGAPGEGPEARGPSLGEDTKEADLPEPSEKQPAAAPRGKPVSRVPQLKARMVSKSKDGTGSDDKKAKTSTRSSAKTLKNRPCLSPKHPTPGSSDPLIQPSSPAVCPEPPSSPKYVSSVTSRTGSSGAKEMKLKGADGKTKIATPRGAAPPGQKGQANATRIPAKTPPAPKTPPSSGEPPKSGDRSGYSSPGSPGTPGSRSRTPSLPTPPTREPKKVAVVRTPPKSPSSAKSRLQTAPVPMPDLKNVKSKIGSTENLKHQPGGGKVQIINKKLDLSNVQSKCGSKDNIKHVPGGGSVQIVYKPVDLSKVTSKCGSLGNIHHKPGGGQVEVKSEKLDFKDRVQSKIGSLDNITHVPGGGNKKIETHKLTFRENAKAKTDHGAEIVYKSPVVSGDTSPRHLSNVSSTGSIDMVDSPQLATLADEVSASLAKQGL
T3 sequence (P11802 whole entry): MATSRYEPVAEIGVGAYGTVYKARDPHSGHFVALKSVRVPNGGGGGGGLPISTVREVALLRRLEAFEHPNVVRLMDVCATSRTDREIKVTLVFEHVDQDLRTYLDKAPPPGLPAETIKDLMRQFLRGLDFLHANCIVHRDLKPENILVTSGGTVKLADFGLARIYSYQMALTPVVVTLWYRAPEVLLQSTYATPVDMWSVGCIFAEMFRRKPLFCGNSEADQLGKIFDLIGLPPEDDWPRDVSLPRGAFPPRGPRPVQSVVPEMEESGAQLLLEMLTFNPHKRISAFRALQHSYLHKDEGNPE
T3 sequence (Q96SW2 whole entry): as the sequence (Q96SW2 whole entry) above
T3 sequence (Q16531 whole entry partner): as the sequence (Q16531 whole entry partner) above

On to `O=C1CCN(N2C(=O)c3ccc(N4CCN(CC5CCN(c6ccn7c(n6)nc6ccccc67)CC5)CC4)c(F)c3C2=O)C(=O)N1` [GT-08824, 5-(4-((1-(benzo[4,5]imidazo[1,2-a]pyrimidin-2-yl)piperidin-4-yl)methyl)piperazin-1-yl)-2-(2,4-dioxotetrahydropyrimidin-1(2H)-yl)-4-fluoroisoindoline-1,3-dione], for which the “Degradation of substrate protein Tau (substrate protein remaining %)” value in [1] was “A (0%≤substrate protein remaining %≤80%)”.
On to `Cc1nc2c(F)cc(-c3nc(Nc4ccc(N5CCC(N(C)Cc6ccc7c(c6)CN(N6CCC(=O)NC6=O)C7=O)CC5)cn4)ncc3F)cc2n1C(C)C` [GT-06837, 1-(5-(((1-(6-((5-fluoro-4-(4-fluoro-1-isopropyl-2-methyl-1H-benzo[d]imidazol-6-yl)pyrimidin-2-yl)amino)pyridin-3-yl)piperidin-4-yl)(methyl)amino)methyl)-1-oxoisoindolin-2-yl)dihydropyrimidine-2,4 (1H,3H)-dione], for which the IC50 in experiment [2] is 100 to 300 nM; in experiment [3], 10 to 50 nM; in [4], 10 to 50 nM; in experiment [5], 100 to 300 nM; in [7], 100 to 300 nM. The “Degradation of substrate protein CDK6 (substrate protein remaining %)” value in experiment [6] was “A (0%≤substrate protein remaining %≤80%)”. Further, the “Degradation of substrate protein CDK4 (substrate protein remaining %)” value in experiment [8] was “A (0%≤substrate protein remaining %≤80%)”.
Consider `Cn1ncc(Cl)c1-c1cc(C(=O)N[C@@H](Cc2ccc(F)c(F)c2)CN2CCN(CC3CCN(c4cccc5c4C(=O)N(N4CCC(=O)NC4=O)C5=O)CC3)CC2)oc1Cl` [GT-08590, (S)-5-chloro-4-(4-chloro-1-methyl-1H-pyrazol-5-yl)-N-(1-(3,4-difluorophenyl)-3-(4-((1-(2-(2,4-dioxotetrahydropyrimidin-1(2H)-yl)-1,3-dioxoisoindolin-4-yl)piperidin-4-yl)methyl)piperazin-1-yl)propan-2-yl) furan-2-carboxamide], for which the “Degradation of substrate protein Tau (substrate protein remaining %)” value in experiment [1] is reported as “A (0%≤substrate protein remaining %≤80%)”.
Turning to `Cc1nc2c(F)cc(-c3nc(Nc4ccc(N5CCN(Cc6ccc7c(c6)CN(N6CCC(=O)NC6=O)C7=O)CC5)cn4)ncc3F)cc2n1C(C)C` [GT-06672, 1-(5-((4-(6-((5-fluoro-4-(4-fluoro-1-isopropyl-2-methyl-1H-benzo[d]imidazol-6-yl)pyrimidin-2-yl)amino)pyridin-3-yl)piperazin-1-yl)methyl)-1-oxoisoindolin-2-yl)dihydropyrimidine-2,4 (1H,3H)-dione], the IC50 in experiment [3] fell in the range of 100 to 300 nM; in experiment [4], 10 to 50 nM; in experiment [5], 100 to 300 nM; in experiment [7] it was 400 to 800 nM.
In the case of `O=C1CCN(N2C(=O)c3ccc(CN4CCN(C5CCN(c6ccn7c(n6)nc6ccccc67)CC5)CC4)cc3C2=O)C(=O)N1` [GT-08568, 5-((4-(1-(benzo[4,5]imidazo[1,2-a]pyrimidin-2-yl)piperidin-4-yl)piperazin-1-yl)methyl)-2-(2,4-dioxotetrahydropyrimidin-1(2H)-yl)isoindoline-1,3-dione], the “Degradation of substrate protein Tau (substrate protein remaining %)” value in [1] is given as “A (0%≤substrate protein remaining %≤80%)”.
For `CN(C)C(=O)c1cc2cnc(Nc3ccc(N4CCNCC4)cn3)nc2n1C1CCCC1` [Ribociclib, reference compound], the IC50 was > 10000 nM in experiment [2]; 5000 to 10000 nM in experiment [3]; 5000 to 10000 nM in experiment [4]; 1000 to 5000 nM in experiment [5]; 1000 to 5000 nM in experiment [7]. The “Inhibition Rate at 10 nM (%)” value in experiment [4] (Table IE3, CDK4/6 inhibitor-based, MV-4-11, 10 nM, 96 hours) is recorded as “IEb2 (5% ≤ IEb2 < 10%)”. Besides, the “Inhibition Rate at 500 nM (%)” value in experiment [4] (Table IE3, CDK4/6 inhibitor-based, MV-4-11, 500 nM, 96 hours) is listed as “IEb7 (30% ≤ IEb7 < 35%)”.
For `CC(=O)c1c(C)c2cnc(Nc3ccc(N4CCNCC4)cn3)nc2n(C2CCCC2)c1=O` [Palbociclib, reference compound], the IC50 was 1000 to 5000 nM in experiment [2]; 1000 to 5000 nM in experiment [3]; 300 to 400 nM in experiment [4]; 1000 to 5000 nM in [5]; 1000 to 5000 nM in experiment [7]. Besides, the inhibition at 0.01 µM in [9] (H292, 10 nM, read-out: Inhibition Rate at 10 nM (%)) is 10 to 15%. Further, the inhibition at 0.5 µM in experiment [9] (H292, 500 nM, read-out: Inhibition Rate at 500 nM (%)) lay within 25 to 30%.
For `Cn1ncc(Cl)c1-c1cc(C(=O)N[C@H](CNCC2CCN(c3cccc4c3C(=O)N(N3CCC(=O)NC3=O)C4=O)CC2)Cc2ccc(F)c(F)c2)oc1Cl` [GT-08589, (S)-5-chloro-4-(4-chloro-1-methyl-1H-pyrazol-5-yl)-N-(1-(3,4-difluorophenyl)-3-(((1-(2-(2,4-dioxotetrahydropyrimidin-1(2H)-yl)-1,3-dioxoisoindolin-4-yl)piperidin-4-yl)methyl)amino)propan-2-yl) furan-2-carboxamide], the “Degradation of substrate protein Tau (substrate protein remaining %)” value in experiment [1] is “A (0%≤substrate protein remaining %≤80%)”.
For the compound `Cc1nc2c(F)cc(-c3nc(Nc4ccc(N5CCC(N6CCN(Cc7ccc8c(c7)CN(N7CCC(=O)NC7=O)C8=O)CC6)CC5)cn4)ncc3F)cc2n1C(C)C` [GT-06736, 1-(5-((4-(1-(6-((5-fluoro-4-(4-fluoro-1-isopropyl-2-methyl-1H-benzo[d]imidazol-6-yl)pyrimidin-2-yl)amino)pyridin-3-yl)piperidin-4-yl)piperazin-1-yl)methyl)-1-oxoisoindolin-2-yl)dihydropyrimidine-2,4 (1H,3H)-dione], the IC50 in experiment [2] lay within 100 to 300 nM; in experiment [3] it was 10 to 50 nM; in experiment [4], 10 to 50 nM; in experiment [5], 50 to 100 nM; in [7], 100 to 300 nM. The “Degradation of substrate protein CDK6 (substrate protein remaining %)” value in [6] was “A (0%≤substrate protein remaining %≤80%)”. For the same compound, the “Degradation of substrate protein CDK4 (substrate protein remaining %)” value in [8] is given as “B (80%<substrate protein remaining %≤100%)”.
